Results published in patent US20210252008A1, “BIARYL COMPOSITIONS AND METHODS FOR MODULATING A KINASE CASCADE” (Athenex, Inc., priority 2004, published 2021).

Tests used:
[1] = tested on: Chinchillas, noise-induced hearing loss; assay: Protection against noise-induced hearing loss; type: in vivo; details: chinchilla; round window application; 4 kHz band noise 105 dB SPL four hours; day 1, 7, 21; in most cases
Procedure: Chinchillas (N=6) were used in studies of noise-induced hearing loss. The animals' hearing sensitivity was measured using standard electrophysical techniques before the experimental manipulation. […] Animals were anesthetized, the auditory bullae were opened, and the left and right cochleas were visualized. The round window leading to the scala tympani of the cochlea was used as the access point for drug application. Animals were treated with KX1-004, KX1-141, KX1-329 or KX2-328 (a non-ATP competitive inhibitor from Astrazeneca), emulsified in DMSO, in […] of saline solution, which was placed on the round window of one ear. A control solution of 3 mM DMSO in […] of saline solution was placed on the round window of the other ear. The solution was allowed to set on the round window for 30 minutes, then the auditory bullae were closed. […] Following the noise exposure, the animals' hearing was tested at day 1, day 7, and day 21 to determine evoked potential threshold shifts. Permanent threshold shift was assessed at day 21.
FIGS. 10-12 show the average threshold shifts for animals treated with KX1-004, KX1-141, KX1-329 or KX2-328.

[2] = tested on: osteoclast precursors derived from spleen cells; assay: Effect on osteoclast formation; type: cell-based; details: 5 days, RANKL and M-CSF
Procedure: To determine the effect of the compounds on osteoclast formation, the compounds were added to osteoclast precursors derived from spleen cells. For the generation of spleen-derived osteoclasts, spleen cells comprising osteoclast precursors were treated with Rapamycin, KX1-141, KX2-328 (Astrazeneca compound), or KX1-329 for 5 days in the presence of receptor activator of nuclear factor-KB ligand (RANKL) and macrophage colony-stimulating factor (M-CSF). In in vitro murine or human osteoclast models, soluble RANKL enables osteoclast precursors to differentiate in the presence of M-CSF (Quinn, et al.; 1998, Endocrinology, 139, 4424-4427; Jimi, et al.; 1999, J. Immunol., 163, 434-442). The untreated control cells were incubated in the presence of RANKL and M-CSF alone. Rapamycin was used as a positive control for the inhibition of osteoclast formation.
For generating spleen-derived osteoclasts, spleen cells were treated as described above. […] Cells were then stained with the osteoclast marker, tartrate-resistant acid phosphatase (TRAP) to visualize differentiated cells. The numbers of TRAP-positive osteoclasts were counted.

osteoclasts = assay: Effect on osteoclast survival; type: cell-based; details: 48 hours, RANKL and M-CSF
Procedure: To determine the effect of the compounds on osteoclast survival, osteoclasts were treated with Rapamycin, KX1-141, KX2-328, or KX1-329 for 48 hours in the presence of RANKL and M-CSF. The untreated, control cells were incubated in the presence of RANKL and M-CSF alone. Rapamycin was used as a positive control for the inhibition of osteoclast survival.
As described above, osteoclasts were treated with Rapamycin, KX1-141, KX2-328, or KX1-329 for 48 hours in the presence of RANKL and M-CSF. […] Cells were then stained with TRAP and the number of TRAP-positive osteoclasts were counted.

[3] = tested on: osteoclasts on bone slices; assay: Effect on bone resorption in vitro (bone slices); type: cell-based
Procedure: To determine the effects of the compounds on osteoclast formation on bone slices, the bone slices were treated with Rapamycin, KX1-141, KX2-328, or KX1-329. […] The number of osteoclasts on the bone slices were counted.
During the resorption of bone, osteoclasts form resorption pits. To determine the effects of the compounds on resorption pit formation on bone slices, the bone slices were treated with Rapamycin, KX1-141, KX2-328, or KX1-329, as described above. […] The number of resorption pits on the bone slices was determined.
Bone slices were treated as indicated above. […] The bone slices were then stained with TRAP.
Bone slices were treated as indicated above. […] The bone slices were stained with Toluidine Blue to reveal resorption pits, which are indicators of osteoclast-mediated resorption of bone.

[4] = tested on: c-Src 3T3 cells (NIH 3T3 transfected with human c-Src 527F); assay: BrdU cell growth inhibition, c-Src 3T3; type: cell-based, mouse
Procedure: (§1) The GI50s for several of the compounds of the invention were assayed as described herein.
The c-Src 3T3 is a mouse fibroblast NIH 3T3 normal cell line that has been transfected with a point-mutant of human c-Src wherein tyrosine 527 has been converted to a phenylalanine. This mutation results in “constitutively active” c-Src because phosphorylation on tyrosine 527 results in auto-inhibition of Src by having it fold back on its own SH2 domain. With a Phe there, this phosphorylation can't occur and therefore auto-inhibition can't occur. Thus, the always fully active mutant Src then converts the normal mouse fibroblasts into rapidly growing tumor cells. Since the hyperactive Src is the main factor driving growth in these cells (particularly when cultured under low growth serum conditions), compounds active in blocking this growth are thought to work by blocking Src signaling (e.g. as a direct Src kinase inhibitor or as an inhibitor acting somewhere else in the Src signaling cascade). The cells were routinely cultured in DMEM supplemented with Fetal Bovine Serum (2.0% v/V), L-glutamine (2 mM) and Sodium Pyruvate (1 mM).
(§2) In the BrdU Assay for cell growth inhibition, quantitation of cell proliferation was based on the measurement of BrdU incorporation during DNA synthesis. The Cell Proliferation ELISA BrdU assay kit (colorimetric) was obtained from Roche Applied Science and performed as per vendor instructions.
(§3) The growth inhibition (GI) is determined from the formula GI=(T0-Tn×100/T0−CONn) where T0 is the BrdU growth of untreated cells at time “0”, Tn is the BrdU growth of treated cells at day “n” and CONn is the control BrdU growth of control cells at day “n”. The GI50 was extrapolated and the data plotted using XL-Fit 4.0 software.
(§4) For 96 well culture plate experiments, c-Src 3T3 medium was supplemented with 10 mM HEPES buffer. HT-29 cells were seeded in standard tissue culture 96-well plates and c-Src 3T3 cells were seeded in 96-well plates coated with Poly-D-lysine (BIOCOAT™). To increase CO2 diffusion, c-Src 3T3 96-well plates were incubated with their lids raised by 2 mm using sterile rubber caps.
Seeded 96 well plates were allowed to attach overnight for 18-24 hours, either at 37° C. and 5% CO2 for HT-29 or at 37° C. and 10% CO2 for c-Src 3T3. Approx 18-24 hours after seeding, the initial growth of cells (To) was determined for untreated cells using the BrdU assay. Samples were reconstituted in DMSO at 20 mM and intermediate dilutions made using DMEM containing 10% FBS. The final assay concentrations were 1.5% for FBS and 0.05% for DMSO. Samples were added as 10 μL aliquots in triplicate and plates were incubated as above for 72 hours. […] Plates were assayed for BrdU and the data analyzed as above for GI50. […]

[5] = tested on: Guinea pigs, cisplatin-induced hearing loss; assay: Protection against cisplatin-induced hearing loss; type: in vivo; details: guinea pig; subcutaneous, prior to cisplatin; FIG. 15
Procedure: The effects of high level noise and ototoxic drugs, such as cisplatin or the class of aminoglycosides, share several common features in the inner ear. First, the noise and/or drugs alter the free radi cal/anti oxidant levels in the cochlea (inner ear). […] Guinea pigs (N=7) were used in studies of cisplatin-induced hearing loss. The animals' hearing sensitivity was measured using standard electrophysical techniques before the experimental manipulation. […] Animals were anesthetized and treated with cisplatin. Subsequently, the animals' hearing was tested to determine evoked potential threshold shifts.
Animals were treated subcutaneously with KX1-004 prior to the cisplatin-induced hearing loss.

[6] = tested on: HT29 cell line (NCI standard human colon carcinoma cell line); assay: BrdU cell growth inhibition, HT-29; type: cell-based; details: HT29 cells
Procedure: as §1
The HT29 cell line is a NCI standard human colon carcinoma cell line. […] HT29 cells were routinely cultured in McCoy's 5A medium supplemented with Fetal Bovine Serum (1.5% v/v) and L-glutamine (2 mM).
as §2, §3, §4
Seeded 96 well plates were allowed to attach overnight for 18-24 hours, either at 37° C. and 5% CO2 for HT-29 or at 37° C. and 10% CO2 for c-Src 3T3. Approx 18-24 hours after seeding, the initial growth of cells (To) was determined for untreated cells using the BrdU assay. Samples were reconstituted in DMSO at 20 mM and intermediate dilutions made using DMEM containing 10% FBS. The final assay concentrations were 1.5% for FBS and 0.05% for DMSO. Samples were added as 10 μL aliquots in triplicate and plates were incubated as above for 72 hours. Negative (vehicle) and positive controls (e.g., AZ (KX-328)) were included. Plates were assayed for BrdU and the data analyzed as above for GI50. […]

O=C(Cc1ccc(-c2ccccc2)cn1)NCc1cccc(F)c1 [KX1-329]
average dB threshold shifts of treated ears vs control [1]: lower
number of TRAP-positive osteoclasts vs untreated control (formation) ([2]; FIG. 17): reduced the number of TRAP-positive osteoclasts
formation of osteoclasts vs untreated control ([2]; stained, FIG. 16): inhibited the formation of osteoclasts
survival of osteoclasts vs untreated control (osteoclasts; FIG. 18): inhibited the survival of osteoclasts
number of TRAP-positive osteoclasts vs untreated control (survival) (osteoclasts; FIG. 19): reduced the number of TRAP-positive osteoclasts
number of osteoclasts on the bone slices vs untreated control ([3]; FIG. 20A): reduced the number of osteoclasts on the bone slices
number of resorption pits on the bone slices vs untreated control ([3]; FIG. 20B): reduced the number of resorption pits
number of TRAP-positive osteoclasts on the bone slices vs untreated control ([3]; TRAP stain, FIG. 21A): reduced the number of TRAP-positive osteoclasts
number of resorption pits on the bone slices vs untreated control ([3]; Toluidine Blue stain, FIG. 21B): reduced the number of resorption pits

CN1CCN(Cc2ccc(-c3ccc(CC(=O)NCc4cccc(F)c4)nc3)cc2)CC1 [KX2-376]
GI50 ([4]; NIH3T3): > 16 nM

CCOc1ccc(-c2ccc(CC(=O)NCc3cccc(F)c3)nc2)c(OCCN2CCCCC2)c1 [KX2-389]
GI50 (c-Src 3T3) [4]: Inactive (c-Src 3T3);

KX1-004
average dB threshold shifts of treated ears vs control [1]: lower
protection against cisplatin-induced hearing loss (median CAP thresholds) [5]: protected against cisplatin-induced hearing loss

CCOc1ccc(-c2ccc(CC(=O)NCc3cccc(F)c3)nc2)c(OCCN2CCN(C)CC2)c1 [KX2-384]
GI50 (HT29) [6]: inactive (HT-29)

O=C(Cc1ccc(-c2ccccc2)c[n+]1[O-])NCc1cccc(F)c1 [KX1-329 N-oxide]
GI50 (HT29) [6]: inactive (HT-29)
GI50 (c-Src 3T3) [4]: inactive (c-Src 3T3);

CC(C)COc1cc(F)cc(CNC(=O)Cc2ccc(-c3ccc(OCCN4CCOCC4)cc3)cn2)c1 [KX2-387]
GI50 (c-Src 3T3) [4]: inactive (c-Src 3T3);

CC(C)COc1cc(F)cc(CNC(=O)Cc2ccc(-c3ccc(OCCN4CCCCC4)cc3)cn2)c1 [KX2-386]
GI50 (HT29) [6]: inactive (HT-29)
